The values that follow come from article PMC9455983 (International Journal of Molecular Sciences, 2022).

Read-outs that look alike come from different tables or passages of the source.

Test [1] concerns the target T1, delta-opioid receptor (DOR) (Rattus norvegicus, UniProt P33533).
T1 construct: Rat cortices were homogenized using 50 mM Tris, pH 7.4, 10 mM MgCl2-6H2O, 200 µM PMSF; from tissue; host or cells: rat cortex membranes
Description: DOR radioligand competition binding assay ([3H]-DPDPE). The settings on record: Delta screening results. On the procedure: DOR binding assay: Rat cortices were homogenized using 50 mM Tris, pH 7.4, 10 mM MgCl2-6H2O, 200 µM PMSF, centrifuged and incubated as above. Each assay tube contained 2 nM [^3H]-DPDPE. Assay tubes were incubated for 2.5 h at 25 °C. Unlabeled DPDPE was used as a competitor to generate a standard curve and determine nonspecific binding.
(§1) All three binding assays were terminated by filtration through GF/B filters, soaked in 5 mg/mL bovine serum albumin, 50 mM Tris, pH 7.4, on a Tomtec Mach II Harvester 96. The filters were subsequently washed with 6 mL of assay buffer. Bound radioactivity was counted on a Wallac Betaplate Liquid Scintillation Counter. Experiments were conducted using two replicates and repeated twice. Values in Scheme 2 represent the mean ± SD of two experiments with two replicates in each test.
For orientation: In a radioligand displacement assay an active substance lowers the binding of a labelled ligand.

Test [2] concerns the target T2, mu-opioid receptor (MOR) (Rattus norvegicus, UniProt P33535).
T2 construct: Rat cortices were homogenized using 50 mM Tris, pH 7.4, and centrifuged at 16,500 rpm for 10 min; from tissue; host or cells: rat cortex membranes
Description: MOR radioligand competition binding assay ([3H]-DAMGO). To be noted: Mu screening results. On the procedure:
MOR binding assay: Rat cortices were homogenized using 50 mM Tris, pH 7.4, and centrifuged at 16,500 rpm for 10 min. The pellets were resuspended in fresh buffer and incubated at 37 °C for 30 min. Following incubation, the suspensions were centrifuged as before, the resulting pellets were resuspended in 100 volumes of 50 mM Tris, pH 7.4 plus 2 mg/mL bovine serum and the suspensions combined. Each assay tube contained 0.5 mL of membrane suspension, 2 nM [^3H]-DAMGO, and 0.02 mg/mL mixture in a total volume of 0.65 mL [13, 45, 53, 55].
as §1

Test [3] concerns the target T3, kappa-opioid receptor (KOR) (Cavia porcellus, UniProt P41144).
T3 construct: Guinea pig cortices and cerebella were homogenized using 50 mM Tris, pH 7.4; from tissue; host or cells: guinea pig cortex and cerebellum membranes
Description: KOR radioligand competition binding assay ([3H]U69,593). More on the design: species or system guinea pig. To be noted: Kappa screening results. On the procedure:
KOR binding assay: Guinea pig cortices and cerebella were homogenized using 50 mM Tris, pH 7.4, 10 mM MgCl2-6H2O, […] centrifuged and incubated as above. Each assay tube contained 2 nM [^3H]U69,593. Assay tubes were incubated for 2 h at 25 °C. Unlabeled U50,488 was used as a competitor to generate a standard curve and determine nonspecific binding.
as §1

[4] abbreviates: first Ki column, unit not printed (apparently M), read-out: Ki (first column).
The mark [5] stands for this setting: mean of both Ki, unit inferred, read-out: MEAN (Ki).
The mark [6] stands for this setting: mean of two experiments, read-out: Ki.
Setting [7] is: second Ki column, unit not printed (apparently M), read-out: Ki (second column).
Where [8] appears, read: experiment 1, unit inferred, read-out: Ki (Exp 1).
Where [9] appears, read: experiment 2, unit inferred, read-out: Ki (Exp 2).
Where [10] appears, read: mean of Exp 1 and Exp 2, unit inferred, read-out: MEAN (Ki).

`Cc1cc(O)cc(C)c1C[C@H]1CN([C@@H](Cc2ccccc2)CN2C(=N)NC[C@@H]2Cc2ccc(O)cc2)C(=N)N1` [1968-20]: the Ki came to 877 nM in test [1] (setting [4]); 853 nM in test [1] (setting [5]); 853 nM in test [1] (setting [6]); 829 nM in test [1] (setting [7]); 74.7 nM in test [2] (setting [8]); 80.3 nM in test [2] (setting [9]). Moreover, the Ki in test [2] (setting [10]) is 77.5 nM; in test [2] (setting [6]) it was 77 nM; in test [3] (setting [8]), 977 nM; in test [3] (setting [9]) it was 659 nM; in test [3] (setting [10]), 818 nM; in test [3] (setting [6]), 818 nM.

In the case of `Cc1cc(O)cc(C)c1C[C@H]1CNC(=N)N1C[C@H](Cc1ccccc1)N1C[C@H](Cc2ccc(O)cc2)NC1=N` [1968-50], the Ki in test [1] (setting [4]) turned out to be 1100 nM; in test [1] (setting [5]), 896 nM; in test [1] (setting [6]), 896 nM; in test [1] (setting [7]), 690 nM; in test [2] (setting [8]), 61.6 nM; in test [2] (setting [9]) it was 114 nM. Besides, the Ki in test [2] (setting [10]) was found to be 87.8 nM; in test [2] (setting [6]) it was 88 nM; in test [3] (setting [8]), 1900 nM; in test [3] (setting [9]) it was 1740 nM; in test [3] (setting [10]), 1820 nM; in test [3] (setting [6]), 1820 nM.

As for `Cc1cc(O)cc(C)c1C[C@H]1CN([C@@H](CC(C)C)CN2C(=N)NC[C@@H]2C)C(=N)N1` [1968-44], the Ki in test [1] (setting [4]) came to 10200 nM; in test [1] (setting [5]), 7630 nM; in test [1] (setting [6]), 7630 nM; in test [1] (setting [7]), 5060 nM; in test [2] (setting [8]), 157 nM; in test [2] (setting [9]), 244 nM. In addition, the Ki in test [2] (setting [10]) amounted to 200 nM; in test [2] (setting [6]), 200 nM; in test [3] (setting [8]), 1830 nM; in test [3] (setting [9]), 1420 nM; in test [3] (setting [10]), 1630 nM; in test [3] (setting [6]), 1630 nM.

Take `Cc1cc(O)cc(C)c1C[C@H]1CNC(=N)N1C[C@H](CC(C)C)N1C[C@H](Cc2ccccc2)NC1=N` [1968-57]: the Ki was 1400 nM in test [1] (setting [4]); 1240 nM in test [1] (setting [5]); 1240 nM in test [1] (setting [6]); 1070 nM in test [1] (setting [7]); 59.6 nM in test [2] (setting [8]); 74.1 nM in test [2] (setting [9]). Moreover, the Ki stood at 66.8 nM in test [2] (setting [10]); 67 nM in test [2] (setting [6]); 371 nM in test [3] (setting [8]); 679 nM in test [3] (setting [9]); 525 nM in test [3] (setting [10]); 525 nM in test [3] (setting [6]).

With `Cc1cc(O)cc(C)c1C[C@H]1CNC(=N)N1C[C@H](CC(C)C)N1C[C@H](Cc2ccc(O)cc2)NC1=N` [1968-58], the Ki in test [1] (setting [4]) came to 1150 nM; in test [1] (setting [5]), 896 nM; in test [1] (setting [6]), 896 nM; in test [1] (setting [7]) it was 638 nM; in test [2] (setting [8]), 55.1 nM; in test [2] (setting [9]) it was 62 nM. For the same compound, the Ki in test [2] (setting [10]) came to 58.6 nM; in test [2] (setting [6]), 59 nM; in test [3] (setting [8]) it was 542 nM; in test [3] (setting [9]) it was 775 nM; in test [3] (setting [10]), 659 nM; in test [3] (setting [6]), 659 nM.

Regarding `Cc1cc(O)cc(C)c1C[C@H]1CN([C@@H](Cc2c(C)cc(O)cc2C)CN2C(=N)NC[C@@H]2Cc2ccccc2)C(=N)N1` [1968-68], the Ki in test [1] (setting [4]) turned out to be 426 nM; in test [1] (setting [5]), 462 nM; in test [1] (setting [6]), 462 nM; in test [1] (setting [7]), 498 nM; in test [2] (setting [8]), 89.3 nM; in test [2] (setting [9]) it was 76.7 nM. Further, the Ki in test [2] (setting [10]) worked out at 83 nM; in test [2] (setting [6]), 83 nM; in test [3] (setting [8]) it was 538 nM; in test [3] (setting [9]) it was 568 nM; in test [3] (setting [10]) it was 553 nM; in test [3] (setting [6]), 553 nM.

`N=C1NC[C@H](Cc2ccccc2)N1C[C@H](Cc1ccccc1)N1C[C@H](Cc2ccc(O)cc2)NC1=N` [1968-2]: the Ki was determined as 6920 nM in test [1] (setting [4]); 8100 nM in test [1] (setting [5]); 8100 nM in test [1] (setting [6]); 9280 nM in test [1] (setting [7]); 135 nM in test [2] (setting [8]); 142 nM in test [2] (setting [9]). In addition, the Ki in test [2] (setting [10]) came to 139 nM; in test [2] (setting [6]), 139 nM; in test [3] (setting [8]), 5360 nM; in test [3] (setting [9]), 5570 nM; in test [3] (setting [10]) it was 5460 nM; in test [3] (setting [6]) it was 5460 nM.

Turning to `CC(C)C[C@@H](CN1C(=N)NC[C@@H]1C)N1C[C@H](Cc2ccccc2)NC1=N` [1968-41], the Ki in test [1] (setting [4]) is 7310 nM; in test [2] (setting [8]), 5620 nM; in test [2] (setting [9]), 7390 nM; in test [2] (setting [10]), 6510 nM; in test [2] (setting [6]), 6510 nM; in test [3] (setting [8]) it was 23900 nM. Further, the Ki in test [3] (setting [9]) came to 22000 nM; in test [3] (setting [10]), 23000 nM; in test [3] (setting [6]), 23000 nM.

For `Cc1cc(O)cc(C)c1C[C@H]1CNC(=N)N1C[C@H](Cc1ccc(O)cc1)N1C[C@H](Cc2ccc(O)cc2)NC1=N` [1968-54], the Ki in test [1] (setting [4]) stood at 3550 nM; in test [1] (setting [5]), 3280 nM; in test [1] (setting [6]) it was 3280 nM; in test [1] (setting [7]) it was 3010 nM; in test [2] (setting [8]) it was 72.3 nM; in test [2] (setting [9]), 56.4 nM. The Ki in test [2] (setting [10]) is 64.3 nM; in test [2] (setting [6]), 64 nM; in test [3] (setting [8]) it was 1460 nM; in test [3] (setting [9]), 1600 nM; in test [3] (setting [10]), 1530 nM; in test [3] (setting [6]), 1530 nM.

In the case of `Cc1cc(O)cc(C)c1C[C@@H](CN1C(=N)NC[C@@H]1Cc1ccccc1)N1C[C@H](CC(C)C)NC1=N` [1968-15], the Ki in test [1] (setting [4]) is 1070 nM; in test [1] (setting [5]), 1250 nM; in test [1] (setting [6]), 1250 nM; in test [1] (setting [7]), 1440 nM; in test [2] (setting [8]), 350 nM; in test [2] (setting [9]), 260 nM. Also, the Ki in test [2] (setting [10]) turned out to be 305 nM; in test [2] (setting [6]), 305 nM; in test [3] (setting [8]) it was 568 nM; in test [3] (setting [9]) it was 504 nM; in test [3] (setting [10]), 536 nM; in test [3] (setting [6]), 536 nM.

On to `Cc1cc(O)cc(C)c1C[C@@H](CN1C(=N)NC[C@@H]1Cc1ccc(O)cc1)N1C[C@H](Cc2ccccc2)NC1=N` [1968-29], for which the Ki worked out at 967 nM in test [1] (setting [4]); 836 nM in test [1] (setting [5]); 836 nM in test [1] (setting [6]); 705 nM in test [1] (setting [7]); 117 nM in test [2] (setting [8]); 114 nM in test [2] (setting [9]). Further, the Ki came out at 116 nM in test [2] (setting [10]); 116 nM in test [2] (setting [6]); 1450 nM in test [3] (setting [8]); 1450 nM in test [3] (setting [9]); 1450 nM in test [3] (setting [10]); 1450 nM in test [3] (setting [6]).

Regarding `Cc1cc(O)cc(C)c1C[C@H]1CN([C@@H](CC(C)C)CN2C(=N)NC[C@@H]2Cc2ccccc2)C(=N)N1` [1968-12], the Ki in test [1] (setting [4]) amounted to 1950 nM; in test [1] (setting [5]) it was 1850 nM; in test [1] (setting [6]), 1850 nM; in test [1] (setting [7]), 1750 nM; in test [2] (setting [8]), 67.4 nM; in test [2] (setting [9]) it was 65.9 nM. In addition, the Ki in test [2] (setting [10]) stood at 66.6 nM; in test [2] (setting [6]), 67 nM; in test [3] (setting [8]) it was 1030 nM; in test [3] (setting [9]), 1290 nM; in test [3] (setting [10]) it was 1160 nM; in test [3] (setting [6]), 1160 nM.

For `CC(C)C[C@H]1CN([C@@H](Cc2ccccc2)CN2C(=N)NC[C@@H]2Cc2ccccc2)C(=N)N1` [1968-3], the Ki in test [1] (setting [4]) was found to be 6370 nM; in test [1] (setting [5]), 6660 nM; in test [1] (setting [6]), 6660 nM; in test [1] (setting [7]), 6950 nM; in test [2] (setting [8]) it was 2560 nM; in test [2] (setting [9]), 2630 nM. Also, the Ki turned out to be 2590 nM in test [2] (setting [10]); 2590 nM in test [2] (setting [6]); 4510 nM in test [3] (setting [8]); 4840 nM in test [3] (setting [9]); 4670 nM in test [3] (setting [10]); 4670 nM in test [3] (setting [6]).
